Where two headings read alike, the source gives them in different places.
Columns and labels:
[1] = molecular target: α-glucosidase; assay: α-glucosidase inhibition assay (PNPG hydrolysis, absorbance at 405 nm); assay type: biochemical; settings: α-glucosidase 0.2 U/mL, phosphate buffer pH 6.8, 37° C., PNPG substrate, IC50 calculated with SPSS, read-out: α-glucosidase inhibitory activity IC50
Description: The concentration of pNP in the reaction solution, as measured by a plate reader, allows for the detection of the sample's ability to inhibit the activity of α-glucosidase. […] The mixture is then incubated at 37° C. for 15 minutes, after which 20 μL of PNPG solution (2.5 mM) is added. After a 15-minute reaction at 37° C., 80 μL of Na2CO3 solution (2.5 mM) is added, and the absorbance at 405 nm (ODtest) is measured using a plate reader. […] The formula for calculating the enzyme activity inhibition rate is as follows: [formula] The inhibitory effect of the tested monomers on α-glucosidase a gradient concentrations was used to calculate the IC50 values with SPSS.

[2] = test system: α-glucosidase; settings: cited from earlier work

| IC50 [1] [nM] | IC50 ([1]; listed as myricetin-3-O-(4″-O-galloyl)-α-L-rhamnoside) [nM] | Structure (SMILES) | rank of α-glucosidase inhibitory activity among 27 dietary flavonoids ([2]; comparative study of 27 dietary flavonoids (Jia Y, et al., 2019)) | rank of α-glucosidase inhibitory activity among 15 types of flavonoids ([2]; report on 15 types of flavonoids (He C., et al., 2019)) |
| --- | --- | --- | --- | --- |
| 1770 |  | O=c1c(O)c(-c2cc(O)c(O)c(O)c2)oc2cc(O)cc(O)c12 [myricetin] | strongest inhibitor | strongest inhibitory effect |
| 1770 | 15600 | CC1OC(Oc2c(-c3cc(O)c(O)c(O)c3)oc3cc(O)cc(O)c3c2=O)C(O)C(O)C1OC(=O)c1cc(O)c(O)c(O)c1 [myricetin-3-O-(4″-galloyl)-α-L-rhamnoside] |  |  |
| 1320 |  | CC1OC(Oc2c(-c3cc(O)c(O)c(O)c3)oc3cc(O)cc(O)c3c2=O)C(OC(=O)c2cc(O)c(O)c(O)c2)C(O)C1O [myricetin-3-O-(2″-galloyl)-α-L-rhamnoside] |  |  |
